Data taken from PMC6530907 (Biochemistry, 2019).
In brackets after ≈: the same amount, converted by molar mass.

Legend:
Msm ΔEM-pMbtAtb = test: microbe, parasite or virus in culture; assay type: cell-based, Mycobacterium smegmatis; conditions: for MIC potency compared to 1 (decrease): Fe-limiting media
MbtAtb (H10MbtA^opt) [1] = target: T1, MbtAtb (H10MbtA^opt) (Mycobacterium tuberculosis, UniProt P71716); assay type: biochemical
H10MbtA^opt = H10MbtA^opt (Mycobacterium tuberculosis, UniProt P71716); assay type: biochemical
H10MbtA^opt, sequence (P71716 whole entry, looked up): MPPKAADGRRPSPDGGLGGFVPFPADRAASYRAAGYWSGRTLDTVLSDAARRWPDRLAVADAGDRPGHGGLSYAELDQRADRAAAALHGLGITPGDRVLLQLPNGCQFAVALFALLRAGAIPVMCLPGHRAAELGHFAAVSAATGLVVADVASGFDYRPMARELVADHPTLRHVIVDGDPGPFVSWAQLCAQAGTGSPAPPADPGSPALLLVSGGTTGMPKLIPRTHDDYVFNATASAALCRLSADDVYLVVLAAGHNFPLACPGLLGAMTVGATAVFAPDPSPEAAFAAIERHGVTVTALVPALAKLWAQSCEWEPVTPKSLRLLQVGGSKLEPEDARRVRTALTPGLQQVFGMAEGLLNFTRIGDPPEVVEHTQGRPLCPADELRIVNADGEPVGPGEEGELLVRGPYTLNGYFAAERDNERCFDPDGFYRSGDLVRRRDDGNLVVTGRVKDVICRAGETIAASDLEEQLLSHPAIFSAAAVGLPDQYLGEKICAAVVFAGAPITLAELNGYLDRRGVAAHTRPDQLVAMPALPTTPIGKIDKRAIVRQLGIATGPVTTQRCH

MbtAtb (H10MbtA^opt) [2] = target: T1, MbtAtb (H10MbtA^opt); assay type: biochemical; conditions: Kiapp increased linearly with [S]
PPT-PNP coupling system = assay type: biochemical
Msm WT = test: Growth inhibition assay; assay type: cell-based, Mycobacterium smegmatis; conditions: GASTD+Fe medium
Msm ΔE = test: microbe, parasite or virus in culture; assay type: cell-based, Mycobacterium smegmatis; conditions: GASTD medium (Fe-limiting)
Msm ΔM = assay type: cell-based, Mycobacterium smegmatis; conditions: GASTD+Fe medium
Mtb [3] = conditions: cited from earlier work
Mtb [4] = conditions: monotherapy at 5.6 or 16.7 mg/kg; cited from earlier work
[5] = mouse; cited from earlier work
mammalian cells = conditions: cited from earlier work
MbtAtb = conditions: cited from earlier work; for Ki: read-out: Kiapp
MbtAtb (H10MbtA^opt) [6] = target: T1, MbtAtb (H10MbtA^opt); assay type: biochemical; conditions: read-out: IC50 (H10MbtA^opt-dependent signal, salicyl-AMS fragments)

T1 sequence (P71716 whole entry, looked up): as above

Question: With `Nc1nc(-c2ccccc2)nc2c1ncn2C1OC(COS(=O)(=O)NC(=O)c2ccccc2O)C(O)C1O` (stereo not shown) [3a, salicyl-2-Ph-AMS] as the compound, how does the “MIC potency compared to 1 (decrease)” value (Msm ΔEM-pMbtAtb) read?
Answer: Its value is “no statistically significant difference”.

Question: For `Nc1nc(Nc2ccccc2)nc2c1ncn2C1OC(COS(=O)(=O)NC(=O)c2ccccc2O)C(O)C1O` (stereo not shown) [3b, salicyl-2-NHPh-AMS], which “MIC potency compared to 1 (decrease)” value (Msm ΔEM-pMbtAtb) is on record?
Answer: Its value is “no statistically significant difference”.

Question: With `Nc1ncnc2c1ncn2[C@@H]1O[C@H](CNS(=O)(=O)NC(=O)c2ccccc2O)[C@@H](O)[C@H]1O` [4a, salicyl-AMSN] as the compound, how does the “MIC potency compared to 1 (decrease)” value (Msm ΔEM-pMbtAtb) read?
Answer: The value was “no statistically significant difference”.

Question: Which results are given for `CNc1ncnc2c1ncn2[C@@H]1O[C@H](COS(=O)(=O)NC(=O)c2ccccc2O)[C@@H](O)[C@H]1O` [5a, salicyl-6-N-Me-AMS]?
Answer: Kiapp higher than that of salicyl-AMS (1) (MbtAtb (H10MbtA^opt) [1]): ≈ 5.5 fold; decrease in tR compared with salicyl-AMS (1) (MbtAtb (H10MbtA^opt) [1]): ≈ 0.5 fold; increase in koff compared with salicyl-AMS (1) (MbtAtb (H10MbtA^opt) [1]): ≈ 2 fold; konapp lower than that of salicyl-AMS (1) (MbtAtb (H10MbtA^opt) [1]): ≈ 2.5 fold; MIC potency compared to 1 (decrease) (Msm ΔEM-pMbtAtb): no statistically significant difference

Question: What does the source list for `O=C(NS(=O)(=O)OC[C@H]1O[C@@H](n2cnc3c(NC4CC4)ncnc32)[C@H](O)[C@@H]1O)c1ccccc1O` [5b, salicyl-6-N-c-Pr-AMS]?
Answer: Kiapp higher than that of salicyl-AMS (1) (MbtAtb (H10MbtA^opt) [1]): ≈ 5.5 fold; decrease in tR compared with salicyl-AMS (1) (MbtAtb (H10MbtA^opt) [1]): ≈ 0.5 fold; increase in koff compared with salicyl-AMS (1) (MbtAtb (H10MbtA^opt) [1]): ≈ 2 fold; konapp lower than that of salicyl-AMS (1) (MbtAtb (H10MbtA^opt) [1]): ≈ 2.5 fold; MIC potency compared to 1 (decrease) (Msm ΔEM-pMbtAtb): 6 fold

Question: With `Nc1ncnc2c1ncn2[C@@H]1O[C@H](COP(=O)(O)OP(=O)(O)OP(=O)(O)O)[C@@H](O)[C@H]1O` [ATP] as the compound, how does the KmATP (H10MbtA^opt) read?
Answer: The KmATP was 13.0 ± 1.3 µM.

Question: And the “kcatsal (ATP as the variable substrate)” value (H10MbtA^opt)?
Answer: The value was 0.0193 ± 0.00067 s⁻¹.

Question: With `Nc1ncnc2c1ncn2[C@@H]1O[C@H](COS(=O)(=O)NC(=O)c2ccccc2O)[C@@H](O)[C@H]1O` [compound 1, 5´-O-[N-salicylsulfamoyl]adenosine] as the compound, how does the “inhibition mechanism with respect to both MbtAtb substrates” value (MbtAtb (H10MbtA^opt) [2]) read?
Answer: Its value is “competitive inhibition mechanism”.

Question: And the “mechanism of inhibition (kobs vs inhibitor concentration)” value (MbtAtb (H10MbtA^opt) [1]; linear kobs vs [I])?
Answer: The value was “static, slow-onset mechanism of inhibition”.

Question: What about the “effect on the PPT-PNP coupling system” value (PPT-PNP coupling system) of the same compound?
Answer: The value was “did not affect”.

Question: And the MIC (Msm WT)?
Answer: Its MIC is over 1000 µg/mL.

Question: What about the MIC (Msm ΔE) of the same compound?
Answer: Its MIC is 0.5 to 1 µg/mL.

Question: What about the MIC (Msm ΔE; Mycolicibacterium smegmatis) of the same compound?
Answer: Its MIC is 0.5 to 1 µg/mL (≈ 1.07 to 2.14 µM).

Question: And the MIC (Msm ΔM)?
Answer: The MIC was over 1000 µg/mL.

Question: And the MIC (Msm ΔEM-pMbtAtb; GASTD medium (Fe-limiting), listed as salicyl-AMS)?
Answer: The MIC was 0.5 to 1.0 µg/mL.

Question: What about the MIC (Msm ΔEM-pMbtAtb; GASTD+Fe medium (Fe-rich)) of the same compound?
Answer: The MIC was > 1,000 µg/ml.

Question: What about the MIC (Msm ΔEM-pMbtAtb; Mycolicibacterium smegmatis, GASTD medium (Fe-limiting)) of the same compound?
Answer: The MIC was 0.5 to 1 µg/mL (≈ 1.07 to 2.14 µM).

Question: What about the MIC (Msm ΔEM-pMbtAtb; Mycolicibacterium smegmatis, GASTD+Fe medium (Fe-rich)) of the same compound?
Answer: Its MIC is over 1000 µg/mL.

Question: What about the MIC (Mtb [3]; Fe-limiting medium, comparable inoculum) of the same compound?
Answer: The MIC was 0.1 to 0.5 µg/mL.

Question: And the “Mtb growth in the mouse lung” value (Mtb [4])?
Answer: Its value is “significant reduction of Mtb growth in the mouse lung”.

Question: What about the “doses with in vivo toxicity” value [5] of the same compound?
Answer: The value was at least 16.7 mg/kg.

Question: What about the “cytotoxicity against mammalian cells” value (mammalian cells) of the same compound?
Answer: The value was “not cytotoxic”.

Question: Which “worsening of the kinetic parameters relative to salicyl-AMS (1)” value (MbtAtb (H10MbtA^opt) [1]) does the source give for `Nc1ncnc2c1ncn2[C@H]1C[C@H](O)[C@@H](COS(=O)(=O)NC(=O)c2ccccc2O)O1` [compound 2, salicyl-2´-dAMS] here?
Answer: The value was at most 2 fold.

Question: What about the “MIC potency compared to 1 (decrease)” value (Msm ΔEM-pMbtAtb) of the same compound?
Answer: The value was 6 fold.

Question: And the “decrease in Kiapp relative to salicyl-AMS (1)” value (MbtAtb; ATP-PPi assay)?
Answer: Its value is 0.5 fold.

Question: Which results are given for `COc1ncnc2c1ncn2[C@@H]1O[C@H](CNS(=O)(=O)NC(=O)c2ccccc2O)[C@@H](O)[C@H]1O` [compound 6, salicyl-6-MeO-AMSN]?
Answer: Kiapp higher than that of salicyl-AMS (1) (MbtAtb (H10MbtA^opt) [1]): 10 fold; decrease in tR compared with salicyl-AMS (1) (MbtAtb (H10MbtA^opt) [1]): ≈ 0.5 fold; increase in koff compared with salicyl-AMS (1) (MbtAtb (H10MbtA^opt) [1]): ≈ 2 fold; konapp lower than that of salicyl-AMS (1) (MbtAtb (H10MbtA^opt) [1]): 6 fold; MIC potency compared to 1 (decrease) (Msm ΔEM-pMbtAtb): 6 fold

Question: For `O=C(NS(=O)(=O)O)c1ccccc1O` [compound 8, salicyl-sulfamate], which IC50 (MbtAtb (H10MbtA^opt) [6]) is on record?
Answer: The IC50 was about 1000 µM.

Question: Which results are given for `O=C(NS(=O)(=O)OCC1OC(n2cnc3c(=O)[nH]cnc32)C(O)C1O)c1ccccc1O` (stereo not shown) [compound 11, salicyl-IMS]?
Answer: Mtb MIC (Mtb [3]): > 100 µM; Ki (MbtAtb): 0.8 µM

Question: With `CN(C)c1ncnc2c1ncn2C1OC(COS(=O)(=O)NC(=O)c2ccccc2O)C(O)C1O` (stereo not shown) [compound 12, salicyl-6-N,N-diMe-AMS] as the compound, how does the “Mtb MIC” value (Mtb [3]) read?
Answer: Its value is 50 µM.

Question: What about the Ki (MbtAtb) of the same compound?
Answer: The Ki was 0.38 µM.

Question: For `O=C(O)c1ccccc1O` [salicylic acid], which Kmsal (H10MbtA^opt) is on record?
Answer: The Kmsal was 0.31 ± 0.003 µM.

Question: Which “improvement in Kiapp of 4b versus 4a” value (MbtAtb (H10MbtA^opt) [1]) does the source give for salicyl-AMSNMe [4b] here?
Answer: The value was 0.5 fold.

Question: And the “MIC potency compared to 1 (decrease)” value (Msm ΔEM-pMbtAtb)?
Answer: Its value is “indistinguishable”.
